# Tests used:
# [1] = Population PK analysis; format: in vivo, human; details: for CLTFV: full model
# [2] = average of five clinical studies (Table S4)
# [3] = cited from earlier work
# [4] = ref Yager et al. 50; cited from earlier work
# [5] = test system: HIV-1; details: background statement; cited from earlier work
# [6] = full final model, bootstrap median
smiles,measurement,setting,value
CC(C)OC(=O)[C@H](C)N[P@](=O)(CO[C@H](C)Cn1cnc2c(N)ncnc21)Oc1ccccc1 [tenofovir alafenamide],Increase of relative bioavailability F (absorption of TAF) by cobicistat,[1]; TAF 10 mg with cobicistat versus 25 mg alone (F = 1),115%
same,"Higher intracellular exposure in tenofovir diphosphate, TAF versus TDF",[2],six-fold
same,Lower plasma levels of tenofovir under standard TAF versus TDF dosage,[3],90%
same,"Tenofovir diphosphate levels, TAF once every 3 days versus TDF every day",[4],2.6 times
same,Potency relative to tenofovir disoproxil fumarate,[5],10 times
C[C@H](Cn1cnc2c(N)ncnc21)OCP(=O)(O)O [tenofovir],CLTFV,[1]; 80-year-olds,36 L/h
same,CLTFV lower than in normal kidney function,[1]; CLCR of 20 mL/min (stage 3 CKD) versus normal kidney function,57%
same,"CLTFV, apparent clearance of tenofovir","[1]; base model, ka fixed to 2 h−1",39.9 L/h
same,"θAge, age effect on CLTFV",[1]; [6],−0.242
same,"θBlack or Hispano American, ethnicity effect on CLTFV",[1]; [6],0.120
same,"θCobicistat, effect of cobicistat on F",[1]; [6],1.16
same,"θPotent P-gp inhibitors, effect on CLTFV",[1]; [6],−0.119
same,"CLTFV, apparent clearance of tenofovir","[1]; full final model, bootstrap median (n = 2000 samples)",42.3 L/h
same,"θBlack or Hispano American, ethnicity effect on CLTFV","[1]; full final model, estimate",0.119
same,"θPotent P-gp inhibitors, effect on CLTFV","[1]; full final model, estimate",−0.121
same,"θAge, age effect on CLTFV","[1]; full final model, estimate, Agemedian = 51 years",−0.244
same,"CLTFV, apparent clearance of tenofovir","[1]; full final model, estimate, CLCR-ref 100 mL/min, median age 51 years",42.2 L/h
same,"VTFV, apparent volume of distribution of tenofovir","[1]; full final model, estimate, PLWH after oral TAF",2390 L
same,Tmax,"[1]; human, plasma, oral",2.4 h
same,half-life,"[1]; human, plasma, oral",46 h
same,Vd,"[1]; human, plasma, oral, VTFV, apparent volume of distribution of tenofovir, full final model, bootstrap median (n = 2000 samples)",2400 L
same,CLTFV,[1]; individuals with CLCR of 20 mL/min (stage 3 CKD),18 L/h
same,CLTFV,[1]; normal kidney function,42 L/h
same,CLTFV,"[1]; younger PLWH, median age 51 years",42 L/h

# Source: publication PMC10232258 (Journal of Antimicrobial Chemotherapy, 2023)
